Measurements from paper PMC5750217 (Nature Communications, 2018).

What was measured:
A1-T459C (mutant ASCT1) = target: T1, A1-T459C (mutant ASCT1) (Homo sapiens, UniProt P43007, T459C); assay: Two electrode voltage clamp, substrate-activated anion current in oocytes expressing A1-T459C; type: cell-based; conditions: for EC50: A1-T459C in oocytes, NO3−-containing buffer, current at +60 mV
T1 construct: expressed in transfected cells; host or cells: Xenopus laevis oocytes (cRNA injection)
T1 sequence (P43007 1-532 T459C): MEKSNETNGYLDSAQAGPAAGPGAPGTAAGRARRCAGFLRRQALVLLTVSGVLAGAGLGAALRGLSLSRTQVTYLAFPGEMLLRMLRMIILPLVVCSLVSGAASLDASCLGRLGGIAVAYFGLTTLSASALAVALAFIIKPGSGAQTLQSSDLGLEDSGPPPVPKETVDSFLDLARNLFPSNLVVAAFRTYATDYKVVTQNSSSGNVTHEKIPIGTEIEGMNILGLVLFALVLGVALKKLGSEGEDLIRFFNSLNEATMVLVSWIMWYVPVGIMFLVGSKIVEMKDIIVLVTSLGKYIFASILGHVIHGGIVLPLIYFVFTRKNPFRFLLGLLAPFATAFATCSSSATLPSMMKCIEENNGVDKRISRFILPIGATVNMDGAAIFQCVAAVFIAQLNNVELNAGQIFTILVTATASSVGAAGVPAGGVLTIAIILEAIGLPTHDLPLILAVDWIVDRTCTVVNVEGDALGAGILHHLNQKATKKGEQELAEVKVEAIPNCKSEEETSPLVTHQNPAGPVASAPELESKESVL
Protocol: All chemicals were obtained from Sigma unless otherwise stated. Stage V oocytes were harvested from female Xenopus laevis (frogs) which were obtained from Nasco (Fort Alkinson, USA). Frogs were anaesthetised with 6.5 mM tricaine neutralised with 7.14 mM sodium bicarbonate. After making an incision in the abdomen of the frog, ovarian sacs were removed and stored in OR-2 buffer (82.5 mM NaCl, 2 mM KCl, 1 mM MgCl2, 5 mM hemisodium HEPES, pH 7.5). This surgical procedure follows a protocol (#2016/970) approved by the University of Sydney Animal Ethics Committee under the Australian Code of Practice for the Care and Use of Animals for Scientific Purposes. To isolate oocytes, the ovarian sacs were cut into small sections before being digested by agitation with 2 mg per ml Collagenase A for 1–2 h. Following digestion, defoliculated oocytes were initially rinsed with OR-2, followed by frog Ringer’s solution (96 mM NaCl, 2 mM KCl, 1 mM MgCl2, 1.8 mM CaCl2, 5 mM hemisodium HEPES, pH 7.5). A total of 20 ng of transporter cRNA was injected into oocytes which were stored in frog Ringer’s solution supplemented with 0.1% gentamycin, 50 μg per ml tetracycline, 2.5 mM pyruvate and 0.5 mM theophylline at 16–18 °C.
After 2–4 days of microinjection, current recordings were made using the two electrode voltage clamp technique with a Geneclamp 500 amplifier (Axon Instruments, Foster City, CA) interfaced with a MacLab 2e chart recorder (ADI Instruments, Sydney, Australia) using the chart software, and a Digidata 1322A (Axon Instruments) controlled by an IBM-compatible computer using the pClamp software (version 10, Molecular Devices, Union City, CA). The current–voltage relationships for substrate elicited conductances were obtained by subjecting cells to 200 ms voltage pulses between −100 mV and + 60 mV in 10 mV steps. Current–voltage relationships were calculated by subtracting steady state current measurements in the absence of substrate from corresponding current measurements in the presence of substrate. […]

GltPh-R397C = target: T2, GltPh-R397C (Pyrococcus horikoshii, UniProt O59010, R397C); assay: biochemical; type: binding; conditions: for Apparent number of Na+ ions coupled to binding (n): GltPh-R397C, global fit of isotherms at 10–100 mM Na+, 25 °C
T2 construct: hexa-His (N, cleaved yes); made in house; host or cells: Escherichia coli Top10 (pBAD)
Protocol: Fluorescence-based binding assays were performed by titrating purified protein (50 μg per ml) in 20 mM HEPES/Tris, pH 7.4, 200 mM choline chloride, 0.4 mM n-dodecyl^−β-D-maltopyranoside, 200 nM styryl fluorescent dye RH421 (Invitrogen, Inc., Grand Island, NY) with NaCl, L-ser, L-cys or benzylcysteine at 25 °C[51]. The RH421 dye was excited at 532 nm, and the fluorescence was collected at 628 nm using a QuantaMaster (Photon International Technology, Inc., Edison, NJ). Fluorescence emissions were measured after at least 10 min equilibration to ensure a stabilised signal. The data were analysed using GraphPad Prism version 6.0 for Mac (GraphPad Software, La Jolla California USA). Fractional fluorescence changes were normalised to maximal fluorescence changes, then plotted as a function of ligand concentration and fitted to the Hill equation. All the experiments were performed at least in triplicate.
Analysis of ligand binding data. The voltage sensitive amphipathic dye RH421 reports on Na+ binding to purified GltPh protein in detergent3. RH421 was used to follow Na+ binding to GltPh‐R397C protein either alone or in reactions coupled to binding of amino acids. […]
Coupled ions and amino acid binding was probed by titrating amino acids to the GltPh‐R397C protein in the presence of 10 – 100 mM Na+ ions. The obtained isotherms were analyzed to estimate an apparent number of Na+ ions coupled to binding of the amino acids.
Raw data were first normalized by the initial fluorescence of RH421 and plotted as fraction of fluorescence change (Supplementary […]
total amount of dye and detergent in the assay buffer.
To take into account significant amino acid‐independent Na+ binding, the sets of binding isotherms obtained at variable Na+ concentrations were fitted globally to a simplified binding equation: […]
KD,a is the combined dissociation constant for coupled Na+ and ligand binding and n is the apparent number of coupled ions. Fraction of the protein bound to either Na+ ions alone or to the ions and the […]
Fraction of the protein already bound to Na+ ions before ligand addition is: […]
Fractional fluorescence change Y is fitted to an equation: […]
where Y0 and ∆Y are, respectively, baseline and the signal difference between fully bound and apo […]
KD,a and n were fitted globally for each ligand. Y0 and ∆Y were adjusted for each isotherm independently. […]
individual isotherm to a standard Hill equation, plotted the apparent dissociation constants as functions of Na+ concentrations and compared the values to those predicted using the parameters from the global fits (Supplementary Figure 8).

T2 sequence (O59010 whole entry R397C): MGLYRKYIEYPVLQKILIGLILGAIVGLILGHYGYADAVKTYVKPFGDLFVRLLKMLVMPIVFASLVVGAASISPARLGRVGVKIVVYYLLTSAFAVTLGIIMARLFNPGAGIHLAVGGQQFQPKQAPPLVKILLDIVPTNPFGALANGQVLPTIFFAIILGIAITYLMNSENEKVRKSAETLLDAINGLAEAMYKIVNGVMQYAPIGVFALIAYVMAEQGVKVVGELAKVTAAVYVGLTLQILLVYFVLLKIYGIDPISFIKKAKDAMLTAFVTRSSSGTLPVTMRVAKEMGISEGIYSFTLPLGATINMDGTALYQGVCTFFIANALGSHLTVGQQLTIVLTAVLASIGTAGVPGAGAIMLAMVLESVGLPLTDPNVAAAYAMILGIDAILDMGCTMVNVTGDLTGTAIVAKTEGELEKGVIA

Structure (SMILES)	GPNA % inhibition of L-serine activated current (A1-T459C (mutant ASCT1); A1-T459C, GPNA co-applied with EC50 of L-serine, maximal dose / 1 mM GPNA (Table 1 footnote)) [%]	Kd (GltPh-R397C) [µM]	Apparent number of Na+ ions coupled to binding (n) (GltPh-R397C)	EC50 (A1-T459C (mutant ASCT1)) [µM]
N[C@@H](CCC(=O)Nc1ccc([N+](=O)[O-])cc1)C(=O)O [GPNA, glutamyl-p-nitroanilide]	18 ± 1			
NC(=O)CC[C@H](N)C(=O)O [L-glutamine]		1800 ± 400	1.1 ± 0.04	260 ± 80
N[C@@H](CO)C(=O)O [L-serine]		9 ± 1	1.7 ± 0.04	83 ± 6
N[C@@H](CS)C(=O)O [L-cysteine]		31 ± 3	1.5 ± 0.04	
